How the values were obtained:
[1] = test system: batrachotoxin (BTX) binding site of the sodium channel; experiment: Affinity to the batrachotoxin (BTX) binding site of the sodium channel; conditions: rat cerebrocortex synaptosomes, [3H]-batrachotoxinin A20 α-benzoate 10 nM; test concentration not given
5-HT transporter = target: T1, 5-HT transporter (Rattus norvegicus, UniProt P31652); experiment: Inhibition of 5-HT uptake in synaptosomes; type: biochemical; conditions: for inhibition at 1 µM: read-out: Uptake_5-HT, rat, 1 μM, % inhibition
T1 construct: from tissue; host or cells: rat brain synaptosomes (marrow/medulla and pons), P2 fraction
T1 sequence (P31652 whole entry): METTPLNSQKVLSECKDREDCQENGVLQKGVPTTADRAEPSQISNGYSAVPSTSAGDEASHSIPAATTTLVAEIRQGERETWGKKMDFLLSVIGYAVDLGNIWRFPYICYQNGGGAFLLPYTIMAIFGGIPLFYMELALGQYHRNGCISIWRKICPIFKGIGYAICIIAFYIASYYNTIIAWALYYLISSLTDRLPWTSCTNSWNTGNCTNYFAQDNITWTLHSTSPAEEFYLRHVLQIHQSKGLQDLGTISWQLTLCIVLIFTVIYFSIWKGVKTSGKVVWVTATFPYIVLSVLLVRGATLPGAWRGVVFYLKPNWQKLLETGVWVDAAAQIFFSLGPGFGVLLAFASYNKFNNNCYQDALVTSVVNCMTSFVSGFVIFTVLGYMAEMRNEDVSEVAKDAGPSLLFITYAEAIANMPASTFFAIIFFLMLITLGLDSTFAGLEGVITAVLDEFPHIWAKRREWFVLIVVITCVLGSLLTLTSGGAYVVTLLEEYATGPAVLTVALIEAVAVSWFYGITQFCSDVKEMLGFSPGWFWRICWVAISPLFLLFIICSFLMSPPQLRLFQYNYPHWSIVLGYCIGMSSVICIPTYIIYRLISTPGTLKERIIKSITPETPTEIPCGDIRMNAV

Compound | BTX Inhibition [1] | further results
1-Allyl-3-isopropyl-2-oxo-1,4,8-triazaspiro[4,5]decan-8-thiocarboxylic acid (3,5-dichlorobenzol)amide [Example 180] | 54 | 
1-Butyl-3-isopropyl-2-oxo-1,4,8-triazaspiro[4,5]decan-8-thiocarboxylic acid (3-chlorobenzol)amide [Example 142] | 63 | 
1-Methyl-3-(2-methylsulfanylethyl)-2-oxo-1,4,8-triazaspiro[4,5]decan-8-thiocarboxylic acid (3-trifluoromethylbenzol)amide [Example 194] | 36 | 
CC(C)C1NC2(CCN(S(=O)(=O)c3ccc([N+](=O)[O-])cc3)CC2)NC1=O (stereo not drawn) [Example 1, 3-Isopropyl-8-(4-nitrobenzolsulfonyl)-1,4,8-triazaspiro[4,5]decan-2-one] |  | Uptake_5-HT, rat, 1 μM, % inhibition (5-HT transporter): 55%
NCCc1c[nH]c2ccc(O)cc12 [Example 5-HT, serotonin, reference compound] |  | Km (5-HT transporter; read-out: 5-HT uptake: Km, characteristic data of the 5-HT transporter): 0.084 ± 0.011 µM
CCCCN1C(=O)C(CCSC)NC12CCN(S(=O)(=O)c1ccc(Cl)s1)CC2 (stereo not drawn) [Example 12, 1-Butyl-8-(5-chlorothiophen-2-sulfonyl)-3-(2-methylsulfanylethyl)-1,4,8-triazaspiro[4,5]decan-2-one] |  | inhibition at 1 µM (5-HT transporter): 58%
CCCCN1C(=O)C(CCSC)NC12CCN(S(=O)(=O)c1ccc(C(C)=O)cc1)CC2 (stereo not drawn) [Example 13, 8-(4-Acetylbenzolsulfonyl)-1-butyl-3-(2-methylsulfanylethyl)-1,4,8-triazaspiro[4,5]decan-2-one] |  | Uptake_5-HT, rat, 1 μM, % inhibition (5-HT transporter): 56%
CCCCN1C(=O)C(C(C)C)NC12CCN(S(=O)(=O)c1ccccc1C(=O)OC)CC2 (stereo not drawn) [Example 15, Methyl 2-(1-butyl-3-isopropyl-2-oxo-1,4,8-triazaspiro[4,5]decan-8-sulfonyl)benzoate] |  | inhibition at 1 µM (5-HT transporter): 44%
CC(C)C1NC2(CCN(S(=O)(=O)c3ccc(F)c(Cl)c3)CC2)N(CCOc2ccccc2)C1=O (stereo not drawn) [Example 17, 8-(3-Chloro-4-fluorobenzolsulfonyl)-3-isopropyl-1-(2-phenoxy-ethyl)-1,4,8-triazaspiro[4,5]decan-2-one] | 41 | 
CCCCN1C(=O)C(C(C)C)NC12CCN(S(=O)(=O)c1ccc(F)cc1F)CC2 (stereo not drawn) [Example 19, 1-Butyl-8-(2,4-difluorobenzolsulfonyl)-3-isopropyl-1,4,8-triazaspiro[4,5]decan-2-one] | 30 | 
Cc1ccc(S(=O)(=O)N2CCC3(CC2)NC(C(C)C)C(=O)N3CCOc2ccccc2)cc1 (stereo not drawn) [Example 21, 3-Isopropyl-1-(2-phenoxy-ethyl)-8-(toluol-4-sulfonyl)-1,4,8-triazaspiro[4,5]decan-2-one] | 54 | 
Cc1cc(S(=O)(=O)N2CCC3(CC2)NC(CC(C)C)C(=O)N3Cc2ccccc2)c(C)cc1Cl (stereo not drawn) [Example 27, 1-Benzyl-8-(4-chloro-2,5-dimethylbenzolsulfonyl)-3-isobutyl-1,4,8-triazaspiro[4,5]decan-2-one] | 59 | 
CCCCN1C(=O)C(CCSC)NC12CCN(S(=O)(=O)c1ccc(OC)c(OC)c1)CC2 (stereo not drawn) [Example 30, 1-Butyl-8-(3,4-dimethoxy-benzolsulfonyl)-3-(2-methylsulfanylethyl)-1,4,8-triazaspiro[4,5]decan-2-one] |  | Uptake_5-HT, rat, 1 μM, % inhibition (5-HT transporter): 53%
CCS(=O)(=O)N1CCC2(CC1)NC(CCSC)C(=O)N2Cc1ccccc1 (stereo not drawn) [Example 32, 1-Benzyl-8-ethanesulfonyl-3-(2-methylsulfanylethyl)-1,4,8-triazaspiro[4,5]decan-2-one] |  | inhibition at 1 µM (5-HT transporter): 64%
COc1ccc(S(=O)(=O)N2CCC3(CC2)NCC(=O)N3Cc2ccccc2F)cc1 [Example 64, 1-(2-Fluorobenzyl)-8-(4-methoxy-benzolsulfonyl)-1,4,8-triazaspiro[4,5]decan-2-one] | 42 | 
C=CCN1C(=O)C(C(C)C)NC12CCN(S(=O)(=O)c1c(C)cc(C)cc1C)CC2 (stereo not drawn) [Example 70, 1-Allyl-3-isopropyl-8-(2,4,6-trimethylbenzolsulfonyl)-1,4,8-triazaspiro[4,5]decan-2-one] | 60 | 
C=CCN1C(=O)C(CCSC)NC12CCN(S(=O)(=O)c1ccc3c(c1)CN(C(=O)C(F)(F)F)CC3)CC2 (stereo not drawn) [Example 78, 1-Allyl-3-(2-methylsulfanylethyl)-8-[2-(2,2,2-trifluoroacetyl)-1,2,3,4-tetrahydroisoquinolin-7-sulfonyl]-1,4,8-triazaspiro[4,5]decan-2-one] | 32 | 
COc1ccc(CNC(=S)N2CCC3(CC2)NC(CCSC)C(=O)N3C)cc1 (stereo not drawn) [Example 111, 1-Methyl-3-(2-methylsulfanylethyl)-2-oxo-1,4,8-triazaspiro[4,5]decan-8-thiocarboxylic acid 4-methoxy-benzylamide] | 51 | 

Compound | BTX Inhibition [1] | further results
CN1C(=O)C(Cc2ccccc2)NC12CCN(C(=S)NCc1cc(F)ccc1F)CC2 (stereo not drawn) [Example 118, 3-Benzyl-1-methyl-2-oxo-1,4,8-triazaspiro[4,5]decan-8-thiocarboxylic acid (2,5-difluorobenzol)amide] | 42 | 
C=CCNC(=S)N1CCC2(CC1)NC(C(C)C)C(=O)N2Cc1ccc(C(=O)OC)cc1 (stereo not drawn) [Example 126, Methyl 4-(8-allylthiocarbamoyl-3-isopropyl-2-oxo-1,4,8-triazaspiro[4,5]dec-1-ylmethyl)benzoate] | 37 | 
CCCCN1C(=O)C(CCSC)NC12CCN(C(=S)NCc1ccccc1OC)CC2 (stereo not drawn) [Example 127, 1-Butyl-3-(2-methylsulfanylethyl)-2-oxo-1,4,8-triazaspiro[4,5]decan-8-thiocarboxylic acid (2-methoxy-benzol)amide] | 44 | 
CSCCC1NC2(CCN(C(=S)NCc3ccc(Cl)cc3)CC2)N(C)C1=O (stereo not drawn) [Example 133, 1-Methyl-3-(2-methylsulfanylethyl)-2-oxo-1,4,8-triazaspiro[4,5]decan-8-thiocarboxylic acid (4-chlorobenzol)amide] | 44 | 
CSCCC1NC2(CCN(C(=S)NCc3ccc(F)cc3)CC2)N(C)C1=O (stereo not drawn) [Example 134, 1-Methyl-3-(2-methylsulfanylethyl)-2-oxo-1,4,8-triazaspiro[4,5]decan-8-thiocarboxylic acid 4-fluorobenzylamide] | 50 | 
CSCCC1NC2(CCN(C(=S)NCc3cc(F)ccc3F)CC2)N(C)C1=O (stereo not drawn) [Example 138, 1-Methyl-3-(2-methylsulfanylethyl)-2-oxo-1,4,8-triazaspiro[4,5]decan-8-thiocarboxylic acid (2,5-difluorobenzol)amide] | 34 | 
CC(=O)c1cccc(NC(=S)N2CCC3(CC2)NC(CC(C)C)C(=O)N3Cc2ccccc2C#N)c1 (stereo not drawn) [Example 141, 1-(2-Cyanobenzyl)-3-isobutyl-2-oxo-1,4,8-triazaspiro[4,5]decan-8-thiocarboxylic acid (3-acetylbenzol)amide] | 50 | 
CSCCC1NC2(CCN(C(=S)NCc3ccc(Cl)cc3)CC2)N(Cc2cccc(C#N)c2)C1=O (stereo not drawn) [Example 185, 1-(3-Cyanobenzyl)-3-(2-methylsulfanylethyl)-2-oxo-1,4,8-triazaspiro[4,5]decan-8-thiocarboxylic acid 4-chlorobenzylamide] | 72 | 
C#CCN1C(=O)C(CC(C)C)NC12CCN(C(=S)Nc1c(Cl)cccc1Cl)CC2 (stereo not drawn) [Example 190, 3-Isobutyl-2-oxo-1-prop-2-ynyl-1,4,8-triazaspiro[4,5]decan-8-thiocarboxylic acid (2,6-dichlorobenzol)amide] | 53 | 
COC(=O)c1ccc(CN2C(=O)C(C(C)C)NC23CCN(C(=S)NCc2ccc(Cl)cc2)CC3)cc1 (stereo not drawn) [Example 191, Methyl 4-[8-(4-chlorobenzylthiocarbamoyl)-3-isopropyl-2-oxo-1,4,8-triazaspiro[4,5]dec-1-ylmethyl]-benzoate] | 74 | 
CSCCC1NC2(CCN(C(=S)NC(C)c3ccccc3)CC2)N(Cc2ccc(F)cc2)C1=O (stereo not drawn) [Example 196, 1-(4-Fluorobenzyl)-3-(2-methylsulfanylethyl)-2-oxo-1,4,8-triazaspiro[4,5]decan-8-thiocarboxylic acid (1-benzol-ethyl)amide] | 70 | 
O=C1C(Cc2ccccc2)NC2(CCN(C(=S)NCc3ccc(Cl)cc3)CC2)N1Cc1ccccc1F (stereo not drawn) [Example 197, 3-Benzyl-1-(2-fluorobenzyl)-2-oxo-1,4,8-triazaspiro[4,5]decan-8-thiocarboxylic acid 4-chlorobenzylamide] | 77 | 
CC(C)C1NC2(CCN(C(=S)NCc3ccccc3)CC2)N(Cc2ccccc2)C1=O (stereo not drawn) [Example 199, 1-Benzyl-3-isopropyl-2-oxo-1,4,8-triazaspiro[4,5]decan-8-thiocarboxylic acid benzylamide] | 44 | 
C=CCN1C(=O)C(C(C)C)NC12CCN(C(=O)Nc1cc(F)ccc1F)CC2 (stereo not drawn) [Example 209, 1-Allyl-3-isopropyl-2-oxo-1,4,8-triazaspiro[4,5]decan-8-carboxylic acid (2,5-difluorobenzol)amide] | 31 | 
CC(C)CC1NC2(CCN(C(=O)Nc3cc(F)ccc3F)CC2)N(Cc2ccccc2C#N)C1=O (stereo not drawn) [Example 218, 1-(2-Cyanobenzyl)-3-isobutyl-2-oxo-1,4,8-triazaspiro[4,5]decan-8-carboxylic acid (2,5-difluorobenzol)amide] | 40 | 
CSCCC1NC2(CCN(C(=O)NCc3ccc(Cl)c(Cl)c3)CC2)N(Cc2ccc(F)cc2)C1=O (stereo not drawn) [Example 228, 1-(4-Fluorobenzyl)-3-(2-methylsulfanylethyl)-2-oxo-1,4,8-triazaspiro[4,5]decan-8-carboxylic acid 3,4-dichlorobenzylamide] | 87 | 
COC(=O)c1ccc(CN2C(=O)C(C(C)C)NC23CCN(C(=O)NCc2ccc(Cl)c(Cl)c2)CC3)cc1 (stereo not drawn) [Example 232, Methyl 4-[8-(3,4-dichlorobenzylcarbamoyl)-3-isopropyl-2-oxo-1,4,8-triazaspiro[4,5]dec-1-ylmethyl]-benzoate] | 55 | 
Methyl 4-[8-(2,6-dichlorobenzolthiocarbamoyl)-3-isopropyl-2-oxo-1,4,8-triazaspiro[4,5]dec-1-ylmethyl]-benzoate [Example 135] | 38 | 

From patent US7560468B2, “Substituted 1,4,8-triazaspiro[4,5]decan-2-one compounds” (Gruenenthal GmbH, priority 2004, dated 2009)
